Key:
Type in all cases: cell-based
[1] = system: LysoLight-labelled human IgE; experiment: Lysosomal degradation of LysoLight-labelled IgE in HepG2 cells, live cell imaging (Example 7); conditions: equimolar conjugate:LysoLight IgE, area under the curve of deep red fluorescence over three days, normalized to unconjugated parent protein
Procedure: (§1) The following experiments were performed with HepG2 hepatocellular carcinoma cells, grown in Eagle's Minimal Essential Media (EMEM) supplemented with 10% FBS and penicillin/streptomycin.
HepG2 cells (15,000) were plated in 96-well plates 72 hours before performing the experiment. On the day of the experiment, indicated the conjugate was diluted in fresh EMEM and mixed with an equimolar stock of LysoLight-labelled human IgE (Enzo Life Sciences, BPD-DIA-HE1), at 200 nM of each compound. The precomplexed conjugate:IgE mixture was incubated at room temperature for 30 minutes. During the precomplexing step, media from HepG2 was removed, and 40 ul of EMEM with 1/100 Fc Receptor Blocking Solution (Biolegend Human TruStain FcX, 422302) was added. Cells incubated in the receptor blocking solution for 10 minutes while making serial dilutions (1:3) of conjugate:IgE stock solution in EMEM. 40 ul of the conjugate:IgE mixture in EMEM was then added to cells (five dilutions, with final concentrations ranging from 100 nM to 1.23 nM). Cells were placed in an IncuCyte Live-Cell Analysis System (Sartorius) for long term live cell imaging analysis (10× magnification, 3 images per well). One hour after addition of compound, image acquisition to measure red fluorescence from the LysoLight probe was started, with further Images collected every hour for 72 hours. Fluorescence of the LysoLight probe only occurs when cleaved by lysosomal cathepsin proteases, confirming lysosomal delivery and degradation of target. After 72 hours, mean red fluorescence was measured for each time point, and the area under the curve of fluorescence overtime was used to measure total degradation over the 3-day time period.

[2] = system: Alexa Fluor647 labelled human IgE; experiment: Uptake assay: internalization of Alexa Fluor 647 labelled IgE in ASGPR1/2 KO HepG2 cells (Example 6); conditions: equimolar conjugate and AF647 IgE, normalized to unconjugated parent protein
Procedure: as §1
(§2) HepG2 cells (25,000) were plated in 96-well plates 48 hours before the experiment was performed. On the day of the experiment, indicated the conjugate was mixed with an equimolar stock of Alexa Fluor647 labelled human IgE (Enzo Life Sciences, BPD-DIA-HE 1) in fresh EMEM as a 600 nM stock. The precomplexed conjugate:IgE mixture was incubated at room temperature for 30 minutes. During the precomplexing step, media from HepG2 was removed, and 40 ul of EMEM with 1/100 Fc Receptor Blocking Solution (Biolegend Human TruStain FcX, 422302) was added. Cells incubated in the receptor blocking solution for 10 minutes while making serial dilutions (1:3) of conjugate:IgE stock solution in EMEM. 40 ul of the conjugate:IgE mixture in EMEM was then added to cells (six dilutions, with final concentrations ranging from 300 nM to 1.23 nM) for 2 hours before washing with DPBS and detaching with 0.25% Trypsin/EDTA. Cells were pelleted in 96-well conical bottom plates, washed once with FACS Buffer with BSA (Rockland Immunochemicals), and resuspended in FACS Buffer with BSA. Uptake of fluorescently labelled IgE was measured by analyzing median cellular AF647 intensity by flow cytometry.
(§3) Cells were incubated with equimolar ratio of conjugate and AF647 IgE at indicated concentrations, with data normalized to unconjugated parent protein (Oma S35HWY57H-LC).

recombinant IgE = experiment: Degradation of super-stoichiometric levels of target in HepG2 cells (Example 13, Table 31); conditions: 1 nM conjugate and 25 nM IgE for three days, (A-B)/C IgE depleted relative to conjugate, average of two replicate wells
Procedure: as §1
For evaluation of compounds in a high throughput format, 25,000 HepG2 cells were plated in a 96-well plate. The following day, 50 ul of 1 nM conjugate and 25 nM recombinant IgE in EMEM were added to the cells. 50 ul of the initial stock of conjugate:IgE was saved to quantify for an initial time point. Three days later, the media was collected from cells, and both initial and 72 hour time points were quantified for IgE concentration using the MSD assay.
HepG2 cells were incubated in media containing 1 nM conjugate and 25 nM IgE for three days. Concentrations of IgE at beginning and end of experiment were quantified by ELISA-based assay. Molar equivalents of IgE depleted relative to conjugate added are shown, calculated as (A-B)/C, where A is the initial concentration of IgE, B is the concentration of IgE at day three, and C is the concentration of conjugate. Reported values are the average of the values of two replicate wells.

human IgE = experiment: Degradation of initial and subsequent dose of target in HepG2 cells (Example 12, Table 30); conditions: normalized to unconjugated; for Normalized Fluorescence Post Wash Median Green: after wash, probe-conjugated IgE added for 4 hours, subsequent dose of target; for Normalized Fluorescence Precomplex Median Deep Red: precomplexed equimolar conjugate:IgE (cathepsin-cleavable quenched fluorescent probe) added for 2 hours, initial dose of target
Procedure: as §1
HepG2 cells (25,000) were plated in 96-well plates 48 hours before performing the experiment. On the day of the experiment, indicated conjugate was diluted in fresh EMEM as a 2× stock, and mixed with an equimolar stock of human IgE (Enzo Life Sciences, BPD-DIA-HE 1) conjugated to a cathepsin-cleavable quenched fluorescent probe. The precomplexed conjugate:IgE mixture was incubated at 37 degrees Celsius for 30 minutes. Media from HepG2 was removed, and conjugate:IgE mixture in EMEM was added to cells for 2 hours. Cells were then placed on ice to prevent trafficking/recycling during wash steps, and washed once with DPBS, once with sodium acetate buffer (20 mM, 150 mM NaCl, pH 5.2), once with Earle's Balanced Salt Solution (EBSS) adjusted to pH 2.5, and once again with DPBS, to remove conjugate from media and cell surface. Afterwards, 100 ul of prewarmed (to 37 degrees Celsius) EMEM with cathepsin-cleavable quenched fluorescent probe-conjugated IgE was added to cells for 4 hours before washing with DPBS and detaching with 0.25% Trypsin/EDTA. Cells were pelleted in 96-well conical bottom plates, washed once with FACS Buffer with BSA (Rockland Immunochemicals), resuspended FACS Buffer with BSA and median 488 and 647 intensity was analyzed by flow cytometry. Delivery of labelled IgE to the lysosome and subsequent cleavage of initial precomplexed IgE was measured by analyzing median cellular 647 intensity, while cleavage of the post wash addition of IgE, which should only be degraded by recycling conjugates which released the first round of precomplexed IgE, was analyzed by median cellular 488 intensity. HepG2 cells were treated with human IgE (Enzo Life Sciences, BPD-DIA-HE1) conjugated to a cathepsin-cleavable quenched deep red (647) fluorescent probe precomplexed to conjugate fortwo hours, then washed, and fresh media with IgE conjugated to a green (488) cathepsin-cleavable fluorescent probe was then added without conjugate. […] Fluorescence values were measured by FACS and normalized to unconjugated parent protein. Reported values are the average of the values of two replicate wells.

[3] = system: Alexa Fluor647 labelled human IgE; experiment: Uptake assay: internalization of Alexa Fluor 647 labelled IgE in wild type HepG2 cells (Example 6); conditions: equimolar conjugate and AF647 IgE, 2 hours, median cellular AF647 intensity by flow cytometry, normalized to unconjugated parent protein
Procedure: as §1, §2, §3

HepG2 cells = experiment: Externalization of conjugates from a cell following internalization (cycling), high-throughput format (Example 11); conditions: 50 nM conjugate 1 hour, stringent washes, Alexa Fluor 647-labelled a-human IgG 1 hour, FACS, normalized to unconjugated parent protein, average of two replicate wells
Procedure: as §1
The method was also adapted to a high-throughput format. In this assay, 25,000 HepG2 cells were plated in 96-well plates 48 hours before performing the experiment. The day of the experiment, cells were incubated with conjugate at indicated concentrations for 1 hour. Cells were then placed on ice to prevent trafficking/recycling during wash steps, and washed once with DPBS, once with sodium acetate buffer (20 mM, 150 mM NaCl, pH 5.2), once with Earle's Balanced Salt Solution (EBSS) adjusted to pH 2.5, and once again with DPBS, to remove conjugate from media and cell surface. Afterwards, 100 ul of prewarmed (to 37° C.) EMEM with 1 μg/ml of human a-IgG antibody conjugated to Alexa Fluor647 fluorophores was added to cells for 1 hour before washing with DPBS and detaching with 0.25% Trypsin/EDTA. Cells were pelleted in 96-well conical bottom plates, washed once with FACS Buffer with BSA (Rockland Immunochemicals), resuspended FACS Buffer with BSA and median AF647 intensity was analyzed by flow cytometry. The amount of conjugate capable of cycling to the cell surface (being externalized from the cell) and binding to the Alexa Fluor647 labelled α-IgG was measured by analyzing median cellular 647 fluorescence intensity by flow cytometry. […]. Reported values are the average of the values of two replicate wells.

SMILES: CCC[C@H]1O[C@H](CO)[C@H](O)[C@H](O)[C@H]1Nc1nccc(OCCOCCOCCNC(=O)NCCCC(CCCNC(=O)NCCOCCOCCOc2ccnc(N[C@@H]3[C@@H](O)[C@@H](O)[C@@H](CO)O[C@@H]3CCC)n2)(CCCNC(=O)NCCOCCOCCOc2ccnc(N[C@@H]3[C@@H](O)[C@@H](O)[C@@H](CO)O[C@@H]3CCC)n2)NC(=O)CCOCCOCCOCCNS(=O)(=O)c2ccc(N3C(=O)C=CC3=O)cc2)n1 [Compound 2330]
- Normalized Fluorescence 3.7 nM [1]: 8.1
- Normalized Fluorescence 100 nM [1]: 2.4
- Normalized Fluorescence 100 nM ASGPR KO [2]: 1.1
- Average Degradation (Molar equivalents) (recombinant IgE): 2.8 Molar equivalents
- Normalized Fluorescence Post Wash Median Green (human IgE): 2.9
- Normalized Fluorescence Precomplex Median Deep Red (human IgE): 3.0
- Normalized Fluorescence 3.7 nM WT [3]: 54.5
- Normalized Fluorescence 100 nM WT [3]: 166.6
- Normalized Fluorescence (HepG2 cells): 42.9

SMILES: O=C(CCOCCOCCOCCNS(=O)(=O)c1ccc(N2C(=O)C=CC2=O)cc1)NC(CCCNC(=O)NCCOCCOCCOCC(F)(F)c1cncc(N[C@H]2CO[C@H](CO)[C@H](O)[C@@H]2O)n1)(CCCNC(=O)NCCOCCOCCOCC(F)(F)c1cncc(N[C@H]2CO[C@H](CO)[C@H](O)[C@@H]2O)n1)CCCNC(=O)NCCOCCOCCOCC(F)(F)c1cncc(N[C@H]2CO[C@H](CO)[C@H](O)[C@@H]2O)n1 [Compound 2327]
- Normalized Fluorescence 3.7 nM [1]: 24.0
- Normalized Fluorescence 100 nM [1]: 2.7
- Normalized Fluorescence 100 nM ASGPR KO [2]: 1.0
- Average Degradation (Molar equivalents) (recombinant IgE): 9.2 Molar equivalents
- Normalized Fluorescence Post Wash Median Green (human IgE): 4.6
- Normalized Fluorescence Precomplex Median Deep Red (human IgE): 3.7
- Normalized Fluorescence 3.7 nM WT [3]: 133.1
- Normalized Fluorescence 100 nM WT [3]: 268.8
- Normalized Fluorescence (HepG2 cells): 71.2

SMILES: CC(=O)N[C@@H]1[C@@H](O)[C@@H](O)[C@@H](CO)O[C@@H]1CCCOCCOCCNC(=O)NCCCC(CCCNC(=O)NCCOCCOCCC[C@H]1O[C@H](CO)[C@H](O)[C@H](O)[C@H]1NC(C)=O)(CCCNC(=O)NCCOCCOCCC[C@H]1O[C@H](CO)[C@H](O)[C@H](O)[C@H]1NC(C)=O)NC(=O)COCCOCCOCCOCCN(C(=O)CBr)C1CCOCC1 [Compound 2307, N-[4-[2-[2-[3-[(2R,3R,4R,5R,6R)-3-acetamido-4,5-dihydroxy-6-(hydroxymethyl)tetrahydropyran-2-yl]propoxy]ethoxy]ethylcarbamoylamino]-1,1-bis[3-[2-[2-[3-[(2R,3R,4R,5R,6R)-3-acetamido-4,5-dihydroxy-6-(hydroxymethyl)tetrahydropyran-2-yl]propoxy]ethoxy]ethylcarbamoylamino]propyl]butyl]-2-[2-[2-[2-[2-[(2-bromoacetyl)-tetrahydropyran-4-yl-amino]ethoxy]ethoxy]ethoxy]ethoxy]acetamide]
- Normalized Fluorescence 3.7 nM [1]: 7.9
- Normalized Fluorescence 100 nM [1]: 4.1
- Normalized Fluorescence 100 nM ASGPR KO [2]: 1.2
- Average Degradation (Molar equivalents) (recombinant IgE): 5.6 Molar equivalents
- Normalized Fluorescence Post Wash Median Green (human IgE): 3.5
- Normalized Fluorescence Precomplex Median Deep Red (human IgE): 3.7
- Normalized Fluorescence 3.7 nM WT [3]: 81.6
- Normalized Fluorescence 100 nM WT [3]: 253.2
- Normalized Fluorescence (HepG2 cells): 42.9

SMILES: CC(=O)N[C@@H]1[C@@H](O)[C@@H](O)[C@@H](CO)O[C@@H]1CCCOCCOCCNC(=O)NCCCC(CCCNC(=O)NCCOCCOCCC[C@H]1O[C@H](CO)[C@H](O)[C@H](O)[C@H]1NC(C)=O)(CCCNC(=O)NCCOCCOCCC[C@H]1O[C@H](CO)[C@H](O)[C@H](O)[C@H]1NC(C)=O)NC(=O)CBr [Compound 2308]
- Normalized Fluorescence 3.7 nM [1]: 6.7
- Normalized Fluorescence 100 nM [1]: 2.3
- Normalized Fluorescence 100 nM ASGPR KO [2]: 1.1
- Average Degradation (Molar equivalents) (recombinant IgE): 2.5 Molar equivalents
- Normalized Fluorescence Post Wash Median Green (human IgE): 2.8
- Normalized Fluorescence Precomplex Median Deep Red (human IgE): 3.3
- Normalized Fluorescence 3.7 nM WT [3]: 55.1
- Normalized Fluorescence 100 nM WT [3]: 261.4
- Normalized Fluorescence (HepG2 cells): 31.6

SMILES: CC(=O)N[C@@H]1[C@@H](O)[C@@H](O)[C@@H](CO)O[C@@H]1CCCOCCOCCNC(=O)NCCCC(CCCNC(=O)NCCOCCOCCC[C@H]1O[C@H](CO)[C@H](O)[C@H](O)[C@H]1NC(C)=O)(CCCNC(=O)NCCOCCOCCC[C@H]1O[C@H](CO)[C@H](O)[C@H](O)[C@H]1NC(C)=O)NC(=O)NCOCCOCCOCCNS(=O)(=O)c1ccc(N2C(=O)C=CC2=O)cc1 [Compound 2313]
- Normalized Fluorescence 3.7 nM [1]: 13.0
- Normalized Fluorescence 100 nM [1]: 4.1
- Normalized Fluorescence 100 nM ASGPR KO [2]: 1.0
- Average Degradation (Molar equivalents) (recombinant IgE): 7.5 Molar equivalents
- Normalized Fluorescence Post Wash Median Green (human IgE): 3.2
- Normalized Fluorescence Precomplex Median Deep Red (human IgE): 3.5
- Normalized Fluorescence 3.7 nM WT [3]: 89.1
- Normalized Fluorescence 100 nM WT [3]: 259.1
- Normalized Fluorescence (HepG2 cells): 36.4

From patent publication US20260224714A1, “CYCLING LYSOSOMAL TARGETING ANTIBODY CONJUGATES” (Lycia Therapeutics, Inc., priority 2023, published 2026)
